Reference: US20200215025A1, “TREATMENT OF EXCITOTOXICITY” (priority 2017, published 2020)
pEC50: −log10 of the molar value. Where “and” joins values, the source holds several entries; their conditions need not be identical. Equal values may be shown once. Entries after “also recorded” stand apart in the source; their conditions may differ.

Tests used:
rHEK293-GCaMP5g cells [1] = assay: Carbachol-induced Ca2+ store release in rHEK293-GCaMP5g cells (FlexStation 3); assay type: cell-based, human; conditions: for pEC50: carbachol 100 μM in Ca2+ free solution, areas under the curve (RFU) normalised to DMSO control, read-out: EC50, inhibition of Ca2+ store release; for Block of carbachol-induced Ca2+ store release: compound 4 μM, carbachol 100 μM, Ca2+ free solution
Source text: (§1) Untransfected human embryonic kidney 293 (HEK293) cells are a model for neuronal cell Ca^2+ signalling via Gq type G protein-coupled receptors (such as the metabotropic glutamate receptors). […] The current study utilised a custom-developed recombinant human embryonic kidney 293 (rHEK293) cell line stably over-expressing a genetically encoded Ca^2+ reporter (GCaMP5g—after [Akerboom J et al., 2012 Journal of Neuroscience, 32(40): 13819-13840]). This enabled imaging of the Ca^2+ store release under conditions where Carbachol (muscarinic receptor agonist)—induced Ca^2+ store release via the endogenous M3 muscarinic receptor—was delivered in a solution (in mM: NaCl 145; KCl 5.8; MgCl2 0.9; HEPES 10, NaH2PO4 0.7, d-glucose 5.6; pH 7.2-7.4, osmolarity 310-330 mOsm/L), lacking Ca^2+, to the wells containing the adherent rHEK293-GCaMP5g cells, using a FlexStation 3 multi-modal microplate reader (Molecular Devices). This paradigm, with sustained Carbachol presentation, results in extrusion of the cytosolic Ca^2+ from the cell via plasma membrane Ca^2+ pumps, alongside Ca^2+ store depletion. When Ca^2+ is then added to the media, a Ca^2+ signal is detected that reflects Ca^2+ entry into the cells via Ca^2+ entry pathways [Elliott, 2001 Cell calcium, 30, 73-93].
(§2) This study investigated the effect of Nx-1 and Nx-2 on the Ca^2+ re-entry in the rHEK293-GCaMP5g cells using the FlexStation 3 plate reader in ‘Flex Read’ configuration (485 nm excitation, 510 nm emission, 6 flashes per sample, medium detector sensitivity, 37° C., 780 sample points at 1.54 s intervals). The cells were seeded into the 96 well plates in DMEM media with 10% foetal calf serum supplement. The cells approached confluence at ˜66 hours at which stage the cells were washed with the Ca^2+-free solution, and then the drug was added in Ca^2+ free solution (80 μl) and the plate was then placed into the FlexStation plate reader (37° C.) and rested for 30 minutes prior to imaging. The Carbachol (final concentration 100 μM in Ca^2+ free solution; drug at specified concentration) was added 180 seconds after the start of the Ca^2+ imaging read. The Ca^2+ entry was triggered at 480 seconds by adding 10 μl of Carbachol in Ca^2+ solution with the drug (final concentrations: 100 uM Carbachol, Ca^2+1.3 mM; drug at specified concentration). The Ca^2+ imaging proceeded for a total duration of 20 minutes. Controls utilized DMSO carrier at corresponding dilution used with the drug at specified concentrations. Data analysis was based on the areas under the curves (RFU—relative fluorescence Units), with statistical analysis using Sigmaplot (Systat software, version 12.0) and graphics produced using Graphpad Prism (Graphpad Software, version 7.02).

rHEK293-GCaMP5g cells [2] = assay: Ca2+ re-entry in rHEK293-GCaMP5g cells after Ca2+ store depletion (FlexStation 3); assay type: cell-based, human; conditions: carbachol 100 μM; for pEC50: Ca2+ 1.3 mM restored, areas under the curve (RFU) normalised to DMSO control, read-out: EC50, inhibition of Ca2+ re-entry; for Block of Ca2+ re-entry: compound 4 μM, 1.3 mM Ca2+ restored
Source text: as §1, §2

mice (C57BI/6J) = assay: Photothrombotic cerebral cortex infarct model in mice; assay type: in vivo, mouse; conditions: for Infarct volume, 5 DPI carrier versus 5 DPI drug (ANOVA, Holm-Sidak): Nx-2 p=0.025, Nx-1 p=0.886
Description: All in vivo experiments were performed with University of New South Wales (UNSW) Sydney Animal Care and Ethics Committee approval. To undertake this randomized blinded photothrombotic study, male and female mice (C57BI/6J) aged 2-4 months (20-30 g) were anaesthetised with a 4% isoflurane induction (on O2) and fixed onto a stereotaxic frame. Anaesthesia was maintained at 1.5% isoflurane for the rest of the procedure. The animals were constantly monitored for their heart rate and oxygen saturation with their body temperature maintained at 37±1° C. (Kent Scientific Physiology Suite system). An ophthalmological ointment was applied to the eyes for corneal protection. Analgesia Temgesic (Buprenorphine; 0.15 mg/kg; 0.32 mg/ml) was administered intramuscularly, using a 27G needle. The skull was shaved over the target cerebral cortex region and a local anaesthetic Lignocaine was injected subcutaneously (27 needle; 20 mg/ml). A midline incision was made through the skin to expose the cranium and the periosteum was removed. The surface of the cranium was made lucid by applying ophthalmological gel over the surface. The fibre-optic coupled green LED (532 nm; ˜1 mW; 1 mm diameter light guide, Thorlabs, USA) was placed over the left hemisphere of cerebral cortex (3 mm rostral to lambda; 2 mm from the midline) followed by injection of photosensitising dye Rose Bengal (50 mg/kg) with a 29G needle via the tail vein. The skull was illuminated for 5 minutes to trigger the localized thrombus formation at the target region of cerebral cortex. The skin was then sutured and the isoflurane anaesthesia was discontinued, while providing 100% oxygen until the mice regained consciousness. Mice were injected with saline (intraperitoneal, 250 μl) during the recovery phase for rehydration. The mouse was maintained on the rectal probe feedback controlled heating pad in a recovery cage until ambulatory (˜20 min) and then the animal was placed back in its cage with food and water. The mice were monitored for signs of post-operative stress on a daily basis for the five day treatment period. Mice were administered with either the carrier or Nx-2 drug (100 mg/kg) via a rectal suppository, 45 minutes after the photothrombotic lesion, and then every 24 hours for a further 4 days in the conscious mouse. At 5 days post-infarct, the mice were euthanized via an intraperitoneal injection of Lethabarb (100 mg/kg; 27 G needle), following which the mice were transcardially perfused with 4% paraformaldehyde (PFA) in phosphate buffer (0.1 M, pH 7.4). The brains were dissected out and post-fixed for overnight in 4% PFA at 4° C. The brains were cryoprotected in 10% and 30% sucrose made in 0.01 M PBS solutions overnight respectively. Images of the surface infarct were captured on a dissecting microscope. Following cryoprotection, the brains were sectioned coronally (50 μm thick) and kept in 0.01 M PBS until they were imaged under the darkfield microscope. The Image J (NIH) software was used to measure the surface area of the infarct and darkfield sections enabled measurement of the cross sectional area of the infarct (Image J, NIH). Total infarct volume was quantified by summation of areas of infarct from darkfield sections integrated with thickness of the tissue. Descriptive statistics, ANOVA and t-tests were performed to detect the significance difference among the treatment groups using Sigmaplot (Systat software, version 12.0) after establishing normal distribution of the data (alpha=0.05).
The skull of the mouse (C57BI/6J strain) was exposed to enable fibre optic illumination of a region of the cerebral cortex with green light (532 nm) to trigger localized thrombus formation due to tail vein injection of the photo sensitizing dye Rose Bengal. Macroscopic representation of the photo-thrombotic infarct was assessed 5 days post injury in mice treated with carrier only or with Nx-1 drug. […]

SMILES | pEC50 (rHEK293-GCaMP5g cells [1]) | Block of carbachol-induced Ca2+ store release (rHEK293-GCaMP5g cells [1]) | pEC50 (rHEK293-GCaMP5g cells [2]) | Block of Ca2+ re-entry (rHEK293-GCaMP5g cells [2]) | Infarct volume, 5 DPI carrier versus 5 DPI drug (ANOVA, Holm-Sidak) (mice (C57BI/6J); 100 mg/kg) | Surface infarct area, 5 DPI drug versus core infarct (2 HPI control) (mice (C57BI/6J); 100 mg/kg, p=0.064) | Neuroprotection, share of the penumbra expansion (surface infarct area) (mice (C57BI/6J); 5 DPI, 100 mg/kg, relative to 2 HPI core infarct and 5 DPI carrier) [%] | infarct surface area (mice (C57BI/6J); 5 days post infarct, 100 mg/kg rectal suppository 45 min after lesion then every 24 h for 4 days, individual mice) | infarct volume (mice (C57BI/6J); Table 3, 5 days post infarct, Nx-2 100 mg/kg rectal suppository, individual mice) | pEC50 (rHEK293-GCaMP5g cells [1]; Homo sapiens) | pEC50 (rHEK293-GCaMP5g cells [2]; Homo sapiens) | infarct volume (mice (C57BI/6J); Table 5, 5 days post infarct, Nx-1 100 mg/kg, individual mice) | infarct volume (mice (C57BI/6J); Table 7, 5 days post infarct, Nx-1 100 mg/kg, individual mice)
COc1ccc(C2c3ccc(O)cc3OCC2c2ccc(O)cc2)cc1 (racemic) [Nx-2] | ~6.22 and ~6.15 | Block; also recorded: virtually blocked | ~6.22 and ~6.15 | Block | significant difference | not significantly different | 50 | 6.56 mm^2 (2×) and 8.99 mm^2 and 8.19 mm^2 and 5.79 mm^2 and 6.70 mm^2 | 13.29 mm^3 and 10.34 mm^3 and 14.65 mm^3 and 12.02 mm^3 and 10.51 mm^3 and 13.76 mm^3 | – | – | – | –
Oc1ccc(C2=Cc3ccc(O)cc3OC2)cc1 [Nx-1] | ~5.70 | block; also recorded: virtually blocked | ~5.70 | blocked | not significantly different | – | – | – | – | ~5.82 | ~5.82 | 11.80 mm^3 and 18.94 mm^3 and 14.16 mm^3 and 16.84 mm^3 | 11.80 mm^3 and 18.94 mm^3 and 14.16 mm^3 and 16.84 mm^3
